The target in one test is PD-1/PD-L1 (Homo sapiens (Human), UniProt Q9NZQ7). Briefly: Homogenouse Time-Resolved Fluorescence (HTRF) binding assay, PD-1/PD-L1. The protocol:
Homogenouse Time-Resolved Fluorescence (HTRF) binding assay was used to detect the binding ability of the compound of the present disclosure to PD-1/PD-L1.
The purchased kit (CisBio, #64CUS000C-1) contains reagents required for experiments such as PD-1, PD-L1, anti-tag1-Eu, Anti-tag2-XL665, Dilute Buffer, and Detection Buffer.
• 1. The compound was configured with 100% DMSO into 10 concentrations with a concentration gradient of 3 times. • 2. The DMSO solution of the compound was added to Dilute Buffer solution, and the mixture was mixed well and transferred to a 96-well plate. • 3. PD-L1 was diluted with Dilute Buffer solution and then added to the above 96-well plate. • 4. PD-1 was diluted with Dilute Buffer solution and then added to the above 96-well plate, and incubated at room temperature for 30 minutes. • 5. One part of anti-tag1-Eu and one part of Anti-tag2-XL665 were added to Detection Buffer solution, and the mixture was mixed well and transferred to the above 96-well plate. • 6. The mixture in the 96-well plate was incubated at room temperature for 1 to 24 hours. • 7. The HTRF values were read with Envision.

For another test, the system named is tumor. The test is described as follows: Inhibitory effect on tumor in tumor-bearing mice. In kind it is in vivo, C57/BL6 mice. The settings on record: tail vein injection, 45 MBq per mouse, compared with the control group (PBS). An excerpt:
• 1. Inhibitory effect of compound 78 on tumor • 1.1 Experimental animal information: tumor-bearing C57/BL6 mice; SPF grade; weight range: 17-20 g; Shanghai Qi'up Biomedical Technology Co., Ltd. • 1.2 Experimental process
Ten tumor-bearing mice with tumor volumes of 10-100 mm^3 were systematically and randomly divided into 2 groups according to tumor size, with 5 mice in each group, corresponding to PBS and compound 78 respectively. After anesthesia with isoflurane, tumor-bearing mice were injected into the tail vein with compound 78 with 45 MBq (approximately 1.2 mCi) per mouse and a volume of 0.2 mL. After administration, the tumor size and weight of the animals were measured periodically, and the tumor growth curve was drawn to understand the inhibitory effect of the drug on tumor.

Each structure is given as a SMILES string.

The results in this text go back to patent US20250073358A1, “AROMATIC VINYL COMPOUND, METAL COMPLEX THEREOF, AND PREPARATION METHOD THEREFOR AND USE THEREOF” (SHANGHAI MAXINOVEL PHARMACEUTICALS CO., LTD., priority 2021, published 2025).

Sequence of PD-1/PD-L1 (Q9NZQ7 19-238): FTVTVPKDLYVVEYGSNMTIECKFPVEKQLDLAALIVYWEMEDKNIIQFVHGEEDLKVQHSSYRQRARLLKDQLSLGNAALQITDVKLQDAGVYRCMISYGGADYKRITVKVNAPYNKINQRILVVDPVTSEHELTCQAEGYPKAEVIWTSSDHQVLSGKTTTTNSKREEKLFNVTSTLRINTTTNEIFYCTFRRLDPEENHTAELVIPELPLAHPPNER

By IC50 is commonly meant the concentration that gives 50% inhibition. `Cc1c(/C=C/c2cc(OCCOCCN3CCN(CC(=O)O)CCN(CC(=O)O)CCN(CC(=O)O)CC3)c(CN3CCCC[C@H]3C(=O)O)cc2C(F)(F)F)cccc1-c1ccccc1` [Compound 2] gave an IC50 on PD-1/PD-L1 of 1.29 nM. Still for that read-out and setting: the result for `Cc1c(/C=C/c2cc(OCCNC(=O)CN3CCN(CC(=O)O)CCN(CC(=O)O)CCN(CC(=O)O)CC3)c(CN3CCCC[C@H]3C(=O)O)cc2C(F)(F)F)cccc1-c1ccccc1` [Compound 3, (2S)-1-({4-[(1E)-2-(2-Methyl-3-phenylphenyl)vinyl]-5-(trifluoromethyl)-2-{[2-({2-[4,7,10-tris(carboxymethyl)-1,4,7,10-tetraazacyclododecan-1-yl]acetyl}amino)ethyl]oxy}phenyl}methyl)hexahydropyridine-2-carboxylic acid] reads 3.16 nM; that for `Cc1c(/C=C/c2cc(OCCCCNC(=O)CN3CCN(CC(=O)O)CCN(CC(=O)O)CCN(CC(=O)O)CC3)c(CN3CCCC[C@H]3C(=O)O)cc2C(F)(F)F)cccc1-c1ccccc1` [Compound 4, (2S)-1-({4-[(1E)-2-(2-Methyl-3-phenylphenyl)vinyl]-5-(trifluoromethyl)-2-{[4-({2-[4,7,10-tris(carboxymethyl)-1,4,7,10-tetraazacyclododecan-1-yl]acetyl}amino)butyl]oxy}phenyl}methyl)hexahydropyridine-2-carboxylic acid], 0.888 nM. Compound `Cc1c(/C=C/c2cc(OCCOCCN3CCN(CC(=O)O)CCN(CC(=O)O)CCN(CC(=O)O)CC3)c(CN3CCCC[C@H]3C(=O)O)cc2C(F)(F)F)cccc1-c1ccccc1` [Compound 6] showed an IC50 at PD-1/PD-L1 of 2.66 nM. The “inhibition of tumor growth” value with tumor is “very good therapeutic effects on inhibiting tumor growth”. Compound `Cc1c(/C=C/c2cc(OCCNC(=O)C3CCC(CNC(=O)CN4CCN(CC(=O)O)CCN(CC(=O)O)CCN(CC(=O)O)CC4)CC3)c(CN3CCCC[C@H]3C(=O)O)cc2C(F)(F)F)cccc1-c1ccccc1` (stereo partly drawn) [Compound 9] had an IC50 on PD-1/PD-L1 of 1.07 nM. That is a single-digit nanomolar value. Turning to `Cc1ccc(CCCC(=O)NCCCC[C@H](NC(=O)CN2CCN(CC(=O)O)CCN(CC(=O)O)CCN(CC(=O)O)CC2)C(=O)NCCOc2cc(/C=C/c3cccc(-c4ccccc4)c3C)c(C(F)(F)F)cc2CN2CCCC[C@H]2C(=O)O)cc1` [Compound 10], the IC50 on PD-1/PD-L1 is 169 nM. `Cc1ccc(CCCC(=O)NCCCC[C@H](NC(=O)CN2CCN(CC(=O)O)CCN(CC(=O)O)CCN(CC(=O)O)CC2)C(=O)NCCCCOc2cc(/C=C/c3cccc(-c4ccccc4)c3C)c(C(F)(F)F)cc2CN2CCCC[C@H]2C(=O)O)cc1` [Compound 12] showed an IC50 at PD-1/PD-L1 of 32.5 nM. Further, in the test on tumor, the “inhibition of tumor growth” value is “very good therapeutic effects on inhibiting tumor growth”. As to `Cc1ccc(CCCC(=O)NCCCC[C@H](NC(=O)CN2CCN(CC(=O)O)CCN(CC(=O)O)CCN(CC(=O)O)CC2)C(=O)NCCOc2cc(/C=C/c3cccc(-c4ccccc4)c3C)c(C(F)(F)F)cc2CN2CCCC[C@H]2C(=O)O)cc1` [Compound 13], the IC50 at PD-1/PD-L1 is 300 nM. Moreover, the “inhibition of tumor growth” value in the test on tumor is listed as “very good therapeutic effects on inhibiting tumor growth”. The matching figures for `Cc1c(/C=C/c2cc(OCCNC(=O)C3CCC(CNC(=O)CN4CCN(CC(=O)O)CCN(CC(=O)O)CCN(CC(=O)O)CC4)CC3)c(CN3CCCC[C@H]3C(=O)O)cc2C(F)(F)F)cccc1-c1ccccc1` (stereo partly drawn) [Compound 14]: 0.95 nM and “very good therapeutic effects on inhibiting tumor growth”. The matching figures for `Cc1cc(CN2CCCC[C@H]2C(=O)O)c(OCCOC(=O)CN2CCN(CC(=O)[O-])CCN(CC(=O)[O-])CCN(CC(=O)[O-])CC2)cc1/C=C/c1cccc(-c2ccccc2)c1C#N.[Lu+3]` [Compound 15]: 5.33 nM and “very good therapeutic effects on inhibiting tumor growth”.

Consider `Cc1c(/C=C/c2cc(OCCCCCNC(=O)CN3CCN(CC(=O)O)CCN(CC(=O)O)CCN(CC(=O)O)CC3)c(CN3CCCC[C@H]3C(=O)O)cc2C(F)(F)F)cccc1-c1ccccc1` [Compound 16], for which the IC50 on PD-1/PD-L1 was 1.42 nM. On the same count and under the same terms, the result for `Cc1c(/C=C/c2cc(OCCNC(=O)C3CCN(C(=O)CN4CCN(CC(=O)O)CCN(CC(=O)O)CCN(CC(=O)O)CC4)CC3)c(CN3CCCC[C@H]3C(=O)O)cc2C(F)(F)F)cccc1-c1ccccc1` [Compound 18] reads 0.901 nM; that for `Cc1c(/C=C/c2cc(OCC3CCN(C(=O)CN4CCN(CC(=O)O)CCN(CC(=O)O)CCN(CC(=O)O)CC4)CC3)c(CN3CCCC[C@H]3C(=O)O)cc2C(F)(F)F)cccc1-c1ccccc1` [Compound 19], 0.869 nM. On PD-1/PD-L1, `Cc1c(/C=C/c2cc(OCC3CCN(C(=O)CN4CCN(CC(=O)O)CCN(CC(=O)O)CCN(CC(=O)O)CC4)CC3)c(CN3CCCC[C@H]3C(=O)O)cc2C(F)(F)F)cccc1-c1ccccc1` [Compound 20] registered an IC50 of 1.01 nM. For the same compound, the “inhibition of tumor growth” value in the test with tumor is “very good therapeutic effects on inhibiting tumor growth”. The compound `Cc1ccc(CCCC(=O)NCCCC[C@H](NC(=O)CN2CCN(CC(=O)O)CCN(CC(=O)O)CCN(CC(=O)O)CC2)C(=O)NCC2CCC(C(=O)NCCOc3cc(/C=C/c4cccc(-c5ccccc5)c4C)c(C(F)(F)F)cc3CN3CCCC[C@H]3C(=O)O)CC2)cc1` (stereo partly drawn) [Compound 21] registered an IC50 at PD-1/PD-L1 of 3.74 nM. That is a single-digit nanomolar value.

Consider `Cc1ccc(CCCC(=O)NCCCC[C@H](NC(=O)CN2CCN(CC(=O)O)CCN(CC(=O)O)CCN(CC(=O)O)CC2)C(=O)NCC2CCC(C(=O)NCCOc3cc(/C=C/c4cccc(-c5ccccc5)c4C)c(C(F)(F)F)cc3CN3CCCC[C@H]3C(=O)O)CC2)cc1` (stereo partly drawn) [Compound 22], for which the IC50 at PD-1/PD-L1 is 5.03 nM. For the same compound, the “inhibition of tumor growth” value in the test on tumor was “very good therapeutic effects on inhibiting tumor growth”. With `Cc1c(/C=C/c2cc(OCCCCCCNC(=O)CN3CCN(CC(=O)O)CCN(CC(=O)O)CCN(CC(=O)O)CC3)c(CN3CCCC[C@H]3C(=O)O)cc2C(F)(F)F)cccc1-c1ccccc1` [Compound 23], the IC50 on PD-1/PD-L1 was determined as 0.833 nM. `Cc1c(/C=C/c2cc(OCCCCCCNC(=O)CN3CCN(CC(=O)[O-])CCN(CC(=O)[O-])CCN(CC(=O)[O-])CC3)c(CN3CCCC[C@H]3C(=O)O)cc2C(F)(F)F)cccc1-c1ccccc1.[Lu+3]` [Compound 24] came in with an IC50 at PD-1/PD-L1 of 0.785 nM. Also, in the test on tumor, the “inhibition of tumor growth” value was “very good therapeutic effects on inhibiting tumor growth”.

With `Cc1ccc(CCCC(=O)NCCCC[C@H](NC(=O)CN2CCN(CC(=O)O)CCN(CC(=O)O)CCN(CC(=O)O)CC2)C(=O)NCCCCCCOc2cc(/C=C/c3cccc(-c4ccccc4)c3C)c(C(F)(F)F)cc2CN2CCCC[C@H]2C(=O)O)cc1` [Compound 25], the IC50 on PD-1/PD-L1 came out at 16.2 nM. This counts as double-digit nanomolar. On to `Cc1ccc(CCCC(=O)NCCCC[C@H](NC(=O)CN2CCN(CC(=O)O)CCN(CC(=O)O)CCN(CC(=O)O)CC2)C(=O)NCCOCCOc2cc(/C=C/c3cccc(-c4ccccc4)c3C)c(C(F)(F)F)cc2CN2CCCC[C@H]2C(=O)O)cc1` [Compound 30], for which the half-maximal inhibitory concentration (IC50) on PD-1/PD-L1 came out at 9.22 nM. Same read-out and setting: the result for `Cc1c(/C=C/c2cc(OCCOCCNC(=O)CN3CCN(CC(=O)O)CCN(CC(=O)O)CCN(CC(=O)O)CC3)c(CN3CCCC[C@H]3C(=O)O)cc2C(F)(F)F)cccc1-c1ccccc1` [Compound 31] reads 0.603 nM. On to `N#Cc1c(-c2ccccc2)ccnc1/C=C/c1cc(OCC2CCN(C(=O)CN3CCN(CC(=O)[O-])CCN(CC(=O)[O-])CCN(CC(=O)[O-])CC3)CC2)c(CN2CCCC[C@H]2C(=O)O)cc1C(F)(F)F.[Lu+3]` [Compound 44], for which, in the test with tumor, the “inhibition of tumor growth” value is recorded as “very good therapeutic effects on inhibiting tumor growth”.

In turn, `N#Cc1c(-c2ccccc2)ccnc1/C=C/c1cc(OCCCCCN2CCN(CC(=O)O)CCN(CC(=O)O)CC2)c(CN2CCCC[C@H]2C(=O)O)cc1C(F)(F)F` [Compound 57] came in with an IC50 on PD-1/PD-L1 of 4.83 nM. Same read-out and setting: then `N#Cc1c(-c2ccccc2)ccnc1/C=C/c1cc(OCC2CCN(C(=O)CN3CCN(CC(=O)O)CCN(CC(=O)O)CC3)CC2)c(CN2CCCC[C@H]2C(=O)O)cc1C(F)(F)F` [Compound 59], with 5.47 nM; and `Cc1c(/C=C/c2cc(OCCOCCN3CCN(CC(=O)O)CCN(CC(=O)O)CCN(CC(=O)O)CC3)c(CN3CCCC[C@@H]3C(=O)O)cc2C(F)(F)F)cccc1-c1ccccc1` [Compound 69], with 24.8 nM. Same read-out and setting: the result for `Cc1cc(CN2CCCC[C@H]2C(=O)O)c(OCCCCCN2CCN(CC(=O)O)CCN(CC(=O)O)CCN(CC(=O)O)CC2)cc1/C=C/c1cccc(-c2ccccc2)c1C` [Compound 71] reads 13.2 nM. On to `Cc1cc(CN2CCCC[C@H]2C(=O)O)c(OCCOC(=O)CN2CCN(CC(=O)[O-])CCN(CC(=O)[O-])CCN(CC(=O)[O-])CC2)cc1/C=C/c1cccc(-c2ccccc2)c1C#N.[177Lu+3]` [Compound 76], for which the “inhibition of tumor growth” value in the test with tumor is “very good therapeutic effects on inhibiting tumor growth”. As for `Cc1c(/C=C/c2cc(OCCOCCN3CCN(CC(=O)[O-])CCN(CC(=O)[O-])CCN(CC(=O)[O-])CC3)c(CN3CCCC[C@H]3C(=O)O)cc2C(F)(F)F)cccc1-c1ccccc1.[177Lu+3]` [Compound 77], the “inhibition of tumor growth” value with tumor is given as “very good therapeutic effects on inhibiting tumor growth”.
